From paper PMC7259601 (PLoS ONE, 2020) come the findings set out here.

Like-named read-outs stand apart in the source and are kept apart here.

Assay [1] has as its target T1, Human recombinant MAO-A (Homo sapiens, UniProt P21397).
T1 construct: purchased Sigma Aldrich M7316
Description: MAO-A kynuramine fluorescent assay. Conditions: S1 Table A. Format: biochemical. How it is done:
Human recombinant monoamine oxidase proteins MAO-A and MAO-B (Sigma Aldrich, M7316 and M7441) were used to monitor the MAO enzymatic activities in a fluorescent assay using kynuramine as a substrate. […] Enzymatic reaction was initiated by the addition of specific KM Kynuramine and incubated 1 hr at 37 °C. The oxidative deamination of the substrate was stopped by adding NaOH 2N (v/v). The conversion of kynuramine to 4-hydroxyquinoline by MAOs was monitored by fluorescence (λex = 320 nm, λem = 360 nm) using a microplate reader.

The target of assay [2] is T2, MAO-A (Mus musculus, UniProt Q64133).
T2 construct: from tissue; host or cells: mouse brain (homogenate ex vivo; living animal in the L-5-HTP test)
T2 sequence (Q64133 1-526): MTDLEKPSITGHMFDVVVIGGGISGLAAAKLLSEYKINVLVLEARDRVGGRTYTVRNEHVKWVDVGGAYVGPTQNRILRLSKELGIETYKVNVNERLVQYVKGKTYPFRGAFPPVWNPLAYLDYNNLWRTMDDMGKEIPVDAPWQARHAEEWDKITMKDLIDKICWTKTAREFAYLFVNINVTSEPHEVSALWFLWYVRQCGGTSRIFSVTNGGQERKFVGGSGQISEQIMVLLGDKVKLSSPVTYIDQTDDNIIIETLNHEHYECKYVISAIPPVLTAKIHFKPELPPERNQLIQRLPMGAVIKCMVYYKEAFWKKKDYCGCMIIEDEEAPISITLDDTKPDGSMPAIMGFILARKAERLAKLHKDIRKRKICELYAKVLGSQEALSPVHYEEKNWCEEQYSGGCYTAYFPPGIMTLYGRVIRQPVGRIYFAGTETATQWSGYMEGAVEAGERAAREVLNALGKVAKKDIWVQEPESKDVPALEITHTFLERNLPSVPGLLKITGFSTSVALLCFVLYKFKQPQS
Description: L-5-HTP-induced symptoms test. Format: in vivo, CD1 mice. The settings on record: mouse; p.o. gavage, followed by 100 mg/kg L-5-HTP i.p.; read-out: ED50 potentiation of L-5-HTP-induced symptoms. How it is done:
Male C57BL/6 mice (8 weeks of age, 25-30 g) procured from Harlan Interfauna Iberica were housed in the same condition that in MAO-B PEA section. This test was performed essentially as previously described. Test compound was administered p.o. at several dose levels to groups of mice (N = 10/dose) 60 min before an i.p. injection of L-5-HTP (100 mg/kg). This dose of 5-L-HTP produced no effects in control animals. […] Studies were performed in accordance with the institutional guidelines for the care and use of laboratory animals (European Communities Council Directive 86/609/EEC) established by the Ethical Committee for Animal Experimentation at the PRAAL-PCB.
This test was performed essentially as previously described [90](Koe et al., 1983). Test compound was administered p.o. at several dose levels 60 min before an i.p. injection of L-5-HTP. […] One score assigned to each symptom observed per animal, giving a maximal obtainable score of 30 per group of 10 mice.
Behavior was rated as outline above.

Assay [3] concerns the target PDE2A1 (h) (Homo sapiens, UniProt O00408). Description: CEREP Diversity Panel. Format: biochemical. How it is done:
(§1) […]. MAO-A inhibition at 10 μM was 37%, in line with internal data.

For assay [4], the target named is T3, MAO- A (h) (Homo sapiens, UniProt P21397).
T3 construct: purchased CEREP (Eurofins Cerep)
Description: CEREP Diversity Panel. Type of assay: biochemical. How it is done:
as §1

In assay [5] the target is T4, PDE1B (h) (Homo sapiens, UniProt Q01064).
T4 construct: purchased CEREP (Eurofins Cerep)
Description: CEREP Diversity Panel. Type of assay: biochemical. The protocol:
as §1

In assay [6] the test system is isolated Sprague-Dawley rats. Description: Resident Intruder test, rat isolation rearing model. Format: in vivo. Conditions: 0.16 or 0.48 mg/kg/day. The protocol: Sprague Dawley Rats: Right after the weaning (post natal day 21-23), 72 Sprague-Dawley male rats (Charles River, bred in the UAB Animal facility) were divided in two groups: Control (N = 18), maintained 3-4 animals per cage; Isolated (N = 54), 1 animal per cage ([…] 1291H Eurostandard type III with ECOPURE CHIPS 6 bedding material, Harlan). Animals were maintained at 21 ± 2 °C controlled temperature in a 12 hr light / dark cycle (lights on at 8:00 am) with ad libitum access to food (2014 TEKLAD, Harlan) and water. […] Control animals were treated with vehicle. The administration route was drinking water and the vehicle 1.8% 2-Hydroxypropyl-b-cyclodextrin. Drug concentration was adjusted weekly by body weight and water consumption. During the last week of treatment, all animals were tested in the EPM and, on a different day, in the RI test (N = 12 / group). After depth anesthesia with Isoflurane, animals were perfused with saline solution followed by paraformaldehyde in order to obtain brain samples for histological analysis.
The protocol was modified from previously described. Briefly, the test subject (resident) was maintained in its home cage without bedding changes for one week. […] In mice the session was video-recorded for 20 min and social interaction (social interaction and rearings) and aggressive behavior (lateral threats, clinch attacks, keep-down behavior) were analyzed. […] In rats the session was video recorded for 15 min and social interaction (active and passive social interaction, number of evitations and time without social interaction) were analyzed. […] In addition, the time spent without social interaction was also measured.
Resident Intruder (RI): Mice were video-recorded for 20 min and social interaction and aggressive behavior were analyzed. Rats were video recorded for 15 min and social interaction (active and passive social interaction, number of evitations and time without social interaction) were analyzed.

The target in assay [7] is T5, Mouse recombinant SMOX (Mus musculus, UniProt Q99K82).
T5 construct: gift: Paolo Mariottini, Department of Biology, University of Roma
Description: SMOX inhibition assay. Format: biochemical. How it is done: Mouse recombinant SMOX [4] was provided by Paolo Mariottini (Department of Biology, University of Roma). The biochemical activity was measured by its ability to oxidize spermine (specific substrate for SMOX) and produce H2O2 using a horseradish peroxidase coupled assay. The assay buffer for the mSMOX reaction was 100 mM Sodium Phosphate pH 8.0. The inhibition was monitored during 10 min in the presence of KM spermine peptide.

T3 sequence (P21397 whole entry): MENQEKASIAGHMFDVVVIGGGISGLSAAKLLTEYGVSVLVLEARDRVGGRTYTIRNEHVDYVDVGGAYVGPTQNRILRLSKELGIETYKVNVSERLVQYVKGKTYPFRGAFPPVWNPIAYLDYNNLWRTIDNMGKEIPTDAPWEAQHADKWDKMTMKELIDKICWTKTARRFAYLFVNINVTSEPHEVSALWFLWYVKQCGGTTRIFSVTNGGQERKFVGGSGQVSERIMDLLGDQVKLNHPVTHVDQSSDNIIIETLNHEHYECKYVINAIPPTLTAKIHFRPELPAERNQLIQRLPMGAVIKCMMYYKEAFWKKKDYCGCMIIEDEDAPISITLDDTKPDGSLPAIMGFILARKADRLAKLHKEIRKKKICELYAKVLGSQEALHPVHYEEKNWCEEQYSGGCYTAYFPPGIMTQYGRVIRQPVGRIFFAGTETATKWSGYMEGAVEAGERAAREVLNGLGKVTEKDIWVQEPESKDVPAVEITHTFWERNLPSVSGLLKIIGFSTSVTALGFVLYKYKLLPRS
Chain of PDE2A1 (h) (O00408 49-941 limits assumed): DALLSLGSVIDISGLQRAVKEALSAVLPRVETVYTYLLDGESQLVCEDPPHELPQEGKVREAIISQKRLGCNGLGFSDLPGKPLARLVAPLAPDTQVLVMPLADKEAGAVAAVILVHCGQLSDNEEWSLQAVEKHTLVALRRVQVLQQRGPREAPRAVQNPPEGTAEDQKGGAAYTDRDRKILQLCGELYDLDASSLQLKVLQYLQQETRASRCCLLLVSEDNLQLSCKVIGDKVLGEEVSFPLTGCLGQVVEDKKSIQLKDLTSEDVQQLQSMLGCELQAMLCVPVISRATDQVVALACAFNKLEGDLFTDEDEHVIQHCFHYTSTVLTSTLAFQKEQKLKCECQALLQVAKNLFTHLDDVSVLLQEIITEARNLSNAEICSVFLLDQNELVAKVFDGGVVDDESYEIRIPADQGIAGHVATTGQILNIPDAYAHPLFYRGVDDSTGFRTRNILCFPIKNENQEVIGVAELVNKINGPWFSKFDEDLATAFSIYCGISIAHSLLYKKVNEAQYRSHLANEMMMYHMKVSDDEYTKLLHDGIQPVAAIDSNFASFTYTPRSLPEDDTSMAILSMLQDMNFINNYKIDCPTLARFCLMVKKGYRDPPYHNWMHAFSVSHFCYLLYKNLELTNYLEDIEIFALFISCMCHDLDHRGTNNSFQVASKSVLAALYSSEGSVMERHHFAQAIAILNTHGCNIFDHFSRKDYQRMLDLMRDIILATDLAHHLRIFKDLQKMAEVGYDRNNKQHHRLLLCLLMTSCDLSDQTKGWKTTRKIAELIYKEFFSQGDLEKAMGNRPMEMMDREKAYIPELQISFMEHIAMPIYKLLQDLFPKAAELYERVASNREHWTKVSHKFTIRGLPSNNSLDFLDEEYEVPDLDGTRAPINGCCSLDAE
T1 sequence (P21397 whole entry): as the sequence (P21397 whole entry) above
T4 sequence (Q01064 whole entry): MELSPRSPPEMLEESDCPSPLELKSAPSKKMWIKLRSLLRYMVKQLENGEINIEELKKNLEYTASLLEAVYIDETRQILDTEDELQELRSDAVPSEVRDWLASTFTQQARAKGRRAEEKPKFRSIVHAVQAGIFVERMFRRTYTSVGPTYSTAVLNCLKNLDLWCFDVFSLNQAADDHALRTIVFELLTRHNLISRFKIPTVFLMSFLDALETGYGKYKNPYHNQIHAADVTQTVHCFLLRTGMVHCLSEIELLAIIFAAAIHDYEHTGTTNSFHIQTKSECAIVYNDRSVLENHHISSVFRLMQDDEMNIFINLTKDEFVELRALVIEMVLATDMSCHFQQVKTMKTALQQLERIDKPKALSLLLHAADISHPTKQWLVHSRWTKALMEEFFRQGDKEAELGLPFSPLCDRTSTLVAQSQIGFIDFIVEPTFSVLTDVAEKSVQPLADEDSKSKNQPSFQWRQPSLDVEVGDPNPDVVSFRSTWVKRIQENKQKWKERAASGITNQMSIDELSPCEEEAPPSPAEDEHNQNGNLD
T5 sequence (Q99K82 whole entry): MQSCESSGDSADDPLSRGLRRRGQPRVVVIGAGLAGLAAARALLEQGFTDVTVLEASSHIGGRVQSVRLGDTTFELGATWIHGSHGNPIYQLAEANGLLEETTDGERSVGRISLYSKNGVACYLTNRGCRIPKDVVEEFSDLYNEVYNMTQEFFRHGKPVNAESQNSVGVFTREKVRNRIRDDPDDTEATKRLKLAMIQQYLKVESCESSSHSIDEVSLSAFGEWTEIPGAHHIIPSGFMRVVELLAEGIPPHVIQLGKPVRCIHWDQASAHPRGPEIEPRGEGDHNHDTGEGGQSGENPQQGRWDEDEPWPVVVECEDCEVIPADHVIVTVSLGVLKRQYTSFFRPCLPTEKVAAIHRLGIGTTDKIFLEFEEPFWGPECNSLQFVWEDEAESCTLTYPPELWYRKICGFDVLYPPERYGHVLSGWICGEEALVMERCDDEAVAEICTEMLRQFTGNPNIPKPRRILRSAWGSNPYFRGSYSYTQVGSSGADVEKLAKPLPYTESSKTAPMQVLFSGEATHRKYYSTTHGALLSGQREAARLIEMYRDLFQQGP

A word on the IC50: it is the point on the concentration scale where inhibition reaches its midpoint. A word on the ED50: it is the midpoint of the dose-response relation. In general, inhibition refers to the relative decrease from the control value, in per cent. With `Nc1nnc(CN[C@@H]2C[C@H]2c2ccc(OCc3ccccc3)cc2)o1` [ORY-2001, vafidemstat], in assay [1], the 50% inhibitory concentration (IC50) stood at 5.47 ± 0.3 µM. Besides, the ED50 in assay [2] is 20.5 mg/kg. The inhibition at 10 µM in assay [3] is -2%; in assay [4] (10 μM, read-out: MAO-A inhibition) it was 37%; in assay [4] (at 10 µM, read-out: % inhibition), 37%; in assay [5], 7%; in assay [7] it was 31%. Also, the “active and passive social interaction” value in assay [6] was “had no effect on these parameters”. Further, the number of evitations entry in assay [6] is reported as “restored to normality”. In assay [6], the “time without social interaction” value is “dose dependently reduced”.
